Source: article PMC5059489, “Mechanistic evaluation and transcriptional signature of a glutathione S-transferase omega 1 inhibitor” (Nature Communications, 2016)
Values joined by “and” are separate entries in the source; they are usually repeats but may differ in a detail not shown here. Identical values can stand only once.

Assays:
[1] = molecular target: T1, GSTO1 (Homo sapiens, UniProt P78417); experiment: GSTO1 substrate assay (reduction of 4-NPG); conditions: for IC50: read-out: GSTO substrate assay IC50, cluster screening tables
T1 sequence (P78417 1-241): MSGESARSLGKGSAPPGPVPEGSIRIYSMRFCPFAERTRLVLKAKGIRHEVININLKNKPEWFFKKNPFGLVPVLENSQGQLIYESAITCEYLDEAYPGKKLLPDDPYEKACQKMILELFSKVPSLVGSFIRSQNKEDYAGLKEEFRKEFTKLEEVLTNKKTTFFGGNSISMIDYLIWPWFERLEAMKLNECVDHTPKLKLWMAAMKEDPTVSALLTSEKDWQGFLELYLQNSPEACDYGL
Experimental: For activity screening, we adapted a GSTO1 substrate assay that relies on the quantification of the reduction of S-(4-nitrophenacyl)glutathione (4-NPG), a GSTO1-specific substrate[17], using recombinant human GSTO1 in a high-throughput screening format.
Enzyme activity was measured by monitoring the reduction of 4-NPG to 4-nitroacetophenone by GSTO1.

[2] = molecular target: T1, GSTO1; experiment: In-gel fluorescence competitive CMFDA binding assay, recombinant GSTO1; conditions: inhibition of CMFDA binding
Excerpt: (§1) Primary screening of GSTO inhibitors was based on competitive inhibition of CMFDA binding to endogenous GSTO. Briefly, HCT116^p53+/+ cells (4 × 10^4 per well) were coated in a 12-well plate. […] Cells were then washed with PBS and lysed using Cell Lytic M buffer (Sigma). […] Gels were immediately scanned on a Typhoon variable mode imager (Amersham Bioscience). Quantification of fluorescent band intensity was done using Image Quant 5.2 software.

[3] = test system: HCT116p53+/+ cell; experiment: MTT cell proliferation at single concentration; assay type: cell-based, human
Experimental: Cell proliferation was assessed by a MTT assay. Cancer cells were seeded in 96-well microtitre plates and, after overnight attachment, treated with GSTO1 inhibitors. After 72 h, MTT solution (3 mg ml^−1; 20 μl) was added to each well and cells were incubated for 3 h at 37 °C. After incubation, media from each well was removed and the dark blue formazan crystals formed by live cells were dissolved in DMSO (150 μl per well). The absorbance intensity was measured at 570 nm on a microplate reader (Molecular Devices, Sunnyvale, CA, USA). Cell viability after 24 h treatment was assessed using ApoTox-Glo triplex assay (Promega) according to the manufacturer's protocol. At least three independent dose–response experiments with each concentration tested in triplicate were performed for each cell line.

[4] = molecular target: T2, endogenous GSTO1 (Homo sapiens, UniProt P78417); experiment: In-gel fluorescence competitive CMFDA binding assay, endogenous GSTO1 in HCT116; conditions: 10 µM; inhibition of CMFDA binding, HCT116
T2 sequence (P78417 1-241): T1 sequence (P78417 1-241)
Excerpt: as §1

SMILES	GSTO substrate assay % Inhibition at 10 µM [1] [%]	GSTO binding assay (% Inhibition at 10 µM) Recombinant [2] [%]	% Inhibition of HCT116p53+/+ cell proliferation at 10 µM [3]	GSTO binding assay (% Inhibition at 10 µM) Endogenous [4] [%]	IC50 [1] [nM]
Cc1cccc2sc(N(Cc3ccccc3)C(=O)CCl)nc12 [C4-16]	32.6	66.3	86.3% and 89.8%	30.0	–
COc1ccc2cc(CN(C)C(=O)CCl)ccc2c1 [C4-6]	29.3	55.2	44.1% and 68.5%	49.5	–
CCOC(=O)c1c(NC(=O)CCl)sc(Cl)c1-c1ccccc1 [C2-9]	13.9	50.0	16.3%	59.2	–
Cn1ccnc1C(NC(=O)CCl)c1ccccc1 (stereo not drawn) [C3-10]	78.4	29.4	96.5% and 87.4%	48.4	–
N#CCCN(C(=O)CCl)c1cccc(C(F)(F)F)c1 [C4-2]	78.6	53.2	84.1% and 93.6%	52.8	1070
CC(C)(C)c1ccc(C(=O)NNC(=O)CCl)cc1 [C3-20]	42.7	3.9	29.1%	32.9	–
O=C(CCl)Nc1ccc(Oc2ccc(Br)cc2)cc1 [C1-7]	77.7	75.6	29.6%	56.6	162
C=CCN(C(=O)CCl)c1nc(-c2ccc(Cl)c(Cl)c2)cs1 [C4-5]	5.0	-8.2	9.9% and 16.9%	15.9	–
C=CCSc1ccccc1NC(=O)CCl [C1-5]	96.3	52.9	-3.8% and -2.6%	22.9	–
O=C(CCl)Nc1cc2c(cc1Cl)C(=O)c1ccccc1C2=O [C1-12]	10.4	26.5	85%	40.1	–
N#CC(c1cccs1)N1CCN(C(=O)CCl)CC1 (stereo not drawn) [C5-11]	5.7	57.7	19.6%	62.9	–
O=C(CCl)N1CCN(Cc2ccc(Br)s2)CC1 [C5-10]	68.3	59.8	71.5% and 90.4%	55.8	411
CCN1CCN(c2ccc(NC(=O)CCl)cc2)CC1 [C1-20]	66.9	-8.5	43.7% and 39%	-15.1	–
O=C(CCl)N(Cc1ccccc1)Cc1ccco1 [C4-15]	98.2	65.8	-6.8% and -5.5%	34.0	–
CN(Cc1cnn(-c2ccccc2)c1)C(=O)CCl [C4-10]	99.5	66.4	82.1%	53.1	1950
O=C(CCl)N1CCN(S(=O)(=O)C=Cc2ccccc2)CC1 [C5-16]	2.4	82.7	48.3% and 46.5%	61.7	–
O=C(CCl)Nc1nc2cc3c(cc2s1)OCCO3 [C2-27]	85.1	69.0	42.6% and 38.2%	59.6	8670
CC(NC(=O)CCl)C12CC3CC(CC(C3)C1)C2 (stereo not drawn) [C3-33]	36.3	16.6	24.7% and 38.5%	55.3	–
CCN(Cc1ccc2c(c1)OCO2)C(=O)CCl [C4-11]	103.4	60.0	2.8%	51.8	2360
O=C(CCl)N(NC(=O)P(=O)(N1CCOCC1)N1CCOCC1)c1ccc(Br)cc1 [C4-20]	-7.3	9.3	10.4% and 6.3%	27.6	–
O=C(CCl)NC1CCN(Cc2ccccc2)CC1 [C2-2]	90.5	6.5	1.1%	66.7	–
COc1ccc(C2=NN(C(=O)CCl)C(c3cccc(OC)c3OC)C2)cc1 (stereo not drawn) [C5-21]	40.0	65.0	78.2% and 83.6%	28.9	–
O=C(CCl)Nc1cc(C2CC2)nn1-c1ccccc1 [C2-5]	4.4	64.1	-2.7% and -8.6%	69.4	–
CC(C)C(C#N)N1CCN(C(=O)CCl)CC1 (stereo not drawn) [C5-2]	58.2	52.5	40.2% and 61.1%	66.2	559
COc1cc(NC(=O)CCl)c(Cl)cc1C(=O)O [C1-10]	81.7	49.1	19.7%	49.7	–
O=C(CCl)N(CC(F)(F)F)c1ccc(Cl)cc1 [C4-1]	73.0	40.4	76.2% and 81.4%	58.5	3800
CN(CC1COc2ccccc2O1)C(=O)CCl (stereo not drawn) [C4-8]	97.2	59.5	70.7%	53.0	237
